Results as given in patent US20230021483A1, “[…] […] METHOD AND CLASSIFICATION OF PHARMACEUTICAL COMPONENTS BY USING TRANSCRIPTOMES” (National Institutes of Biomedical Innovation, Health and …, priority 2016, published 2023).

System: preferentially upregulated genes in LV, SP, LN
Test: Z-score-based differential gene expression analysis (adjuvant group- or adjuvant-associated genes, 40 module mapping, TargetMine annotation)
Type: in vivo, C57BL/6 mice
Settings: for Adar 1425405_a_at (Group G1, Modules 20) / Adar 1434268_at (Group G1, Modules 20) / Ddx58 1436562_at (Group G1, Modules 20) / Ddx58 1456890_at (Group G1, Modules 20) / Eif2ak2 1422005_at (Group G1, Modules 20) / G3bp2 1421323_a_at (Group G1, Modules 20) / Gm9706///Isg15 1431591_s_at (Group G1, Modules 20) / H2-T10///H2-T22///H2-T9 1449875_s_at (Group G1, Modules 20) / Ifih1 1426276_at (Group G1, Modules 20) / Ifit1 1450783_at (Group G1, Modules 20) / Ifit3 1449025_at (Group G1, Modules 20) / Irf7 1417244_a_at (Group G1, Modules 20) / Irgm1 1418825_at (Group G1, Modules 20) / Mndal 1426906_at (Group G1, Modules 20) / Pml 1448757_at (Group G1, Modules 20) / Pml 1456103_at (Group G1, Modules 20) / Rnf213 1455500_at (Group G1, Modules 20) / Rsad2 1436058_at (Group G1, Modules 20) / Shisa5 1423986_a_at (Group G1, Modules 20) / Shisa5 1437503_a_at (Group G1, Modules 20) / Stat1 1450033_a_at (Group G1, Modules 20) / Stat1 1450034_at (Group G1, Modules 20) / Tdrd7 1426716_at (Group G1, Modules 20) / Tor1aip2 1418115_s_at (Group G1, Modules 20) / Tor1aip2 1418116_at (Group G1, Modules 20) / Tor1aip2 1435526_at (Group G1, Modules 20) / Trim12a 1437432_a_at (Group G1, Modules 20) / Uba7 1426970_a_at (Group G1, Modules 20): IP, LV
In short: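 Per-sample fold-change values converted to gene-wise z-scores within each organ's data set, then triplicate z-scores summed per adjuvant. Genes with summed score >3 taken as preferentially expressed; gene groups defined by combined per-adjuvant z-score thresholds (z>1 to z>3) specific to each organ.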

[1] = liver (LV), gene group G1, module 20, individual mice x1-x3, route ID/IP/IN

## K3: B class CpG ODN (ATCGACTCTCGAGCGTTCTC), TLR9 ligand (chemistry not given here)
Sample x1
  Adar 1425405_a_at (Group G1, Modules 20): −0.5
  Adar 1434268_at (Group G1, Modules 20): −0.6
  Ddx58 1436562_at (Group G1, Modules 20): −0.5
  Ddx58 1456890_at (Group G1, Modules 20): −0.4
  Eif2ak2 1422005_at (Group G1, Modules 20): −0.6
  G3bp2 1421323_a_at (Group G1, Modules 20): −0.6
  Gm9706///Isg15 1431591_s_at (Group G1, Modules 20): −0.5
  H2-T10///H2-T22///H2-T9 1449875_s_at (Group G1, Modules 20): −0.2
  Ifih1 1426276_at (Group G1, Modules 20): −0.4
  Ifit1 1450783_at (Group G1, Modules 20): −0.5
  Ifit3 1449025_at (Group G1, Modules 20): −0.5
  Irf7 1417244_a_at (Group G1, Modules 20): −0.5
  Irgm1 1418825_at (Group G1, Modules 20): −0.5
  Mndal 1426906_at (Group G1, Modules 20): −0.5
  Pml 1448757_at (Group G1, Modules 20): −0.5
  Pml 1456103_at (Group G1, Modules 20): −0.5
  Rnf213 1455500_at (Group G1, Modules 20): −0.5
  Rsad2 1436058_at (Group G1, Modules 20): −0.5
  Shisa5 1423986_a_at (Group G1, Modules 20): −0.6
  Shisa5 1437503_a_at (Group G1, Modules 20): −0.5
  Stat1 1450033_a_at (Group G1, Modules 20): −0.6
  Stat1 1450034_at (Group G1, Modules 20): −0.5
  Tdrd7 1426716_at (Group G1, Modules 20): −0.2
  Tor1aip2 1418115_s_at (Group G1, Modules 20): −0.5
  Tor1aip2 1418116_at (Group G1, Modules 20): −0.4
  Tor1aip2 1435526_at (Group G1, Modules 20): −0.3
  Trim12a 1437432_a_at (Group G1, Modules 20): −0.5
  Uba7 1426970_a_at (Group G1, Modules 20): −0.5
Sample x2
  Adar 1425405_a_at (Group G1, Modules 20): −0.5
  Adar 1434268_at (Group G1, Modules 20): −0.8
  Ddx58 1436562_at (Group G1, Modules 20): −0.2
  Ddx58 1456890_at (Group G1, Modules 20): −0.3
  Eif2ak2 1422005_at (Group G1, Modules 20): −0.7
  G3bp2 1421323_a_at (Group G1, Modules 20): −0.4
  Gm9706///Isg15 1431591_s_at (Group G1, Modules 20): −0.5
  H2-T10///H2-T22///H2-T9 1449875_s_at (Group G1, Modules 20): −0.2
  Ifih1 1426276_at (Group G1, Modules 20): −0.3
  Ifit1 1450783_at (Group G1, Modules 20): −0.5
  Ifit3 1449025_at (Group G1, Modules 20): −0.5
  Irf7 1417244_a_at (Group G1, Modules 20): −0.6
  Irgm1 1418825_at (Group G1, Modules 20): −0.5
  Mndal 1426906_at (Group G1, Modules 20): −0.4
  Pml 1448757_at (Group G1, Modules 20): −0.3
  Pml 1456103_at (Group G1, Modules 20): −0.3
  Rnf213 1455500_at (Group G1, Modules 20): −0.4
  Rsad2 1436058_at (Group G1, Modules 20): −0.5
  Shisa5 1423986_a_at (Group G1, Modules 20): −0.5
  Shisa5 1437503_a_at (Group G1, Modules 20): −0.4
  Stat1 1450033_a_at (Group G1, Modules 20): −0.5
  Stat1 1450034_at (Group G1, Modules 20): −0.6
  Tdrd7 1426716_at (Group G1, Modules 20): −0.1
  Tor1aip2 1418115_s_at (Group G1, Modules 20): −0.2
  Tor1aip2 1418116_at (Group G1, Modules 20): −0
  Tor1aip2 1435526_at (Group G1, Modules 20): −0.2
  Trim12a 1437432_a_at (Group G1, Modules 20): −0.5
  Uba7 1426970_a_at (Group G1, Modules 20): −0.4
Sample x3
  Adar 1425405_a_at (Group G1, Modules 20): −0.2
  Adar 1434268_at (Group G1, Modules 20): −0.8
  Ddx58 1436562_at (Group G1, Modules 20): −0.4
  Ddx58 1456890_at (Group G1, Modules 20): −0.4
  Eif2ak2 1422005_at (Group G1, Modules 20): −0.5
  G3bp2 1421323_a_at (Group G1, Modules 20): −0.4
  Gm9706///Isg15 1431591_s_at (Group G1, Modules 20): −0.5
  H2-T10///H2-T22///H2-T9 1449875_s_at (Group G1, Modules 20): −0.4
  Ifih1 1426276_at (Group G1, Modules 20): −0.5
  Ifit1 1450783_at (Group G1, Modules 20): −0.5
  Ifit3 1449025_at (Group G1, Modules 20): −0.5
  Irf7 1417244_a_at (Group G1, Modules 20): −0.5
  Irgm1 1418825_at (Group G1, Modules 20): −0.6
  Mndal 1426906_at (Group G1, Modules 20): −0.4
  Pml 1448757_at (Group G1, Modules 20): −0.6
  Pml 1456103_at (Group G1, Modules 20): −0.6
  Rnf213 1455500_at (Group G1, Modules 20): −0.5
  Rsad2 1436058_at (Group G1, Modules 20): −0.5
  Shisa5 1423986_a_at (Group G1, Modules 20): −0.8
  Shisa5 1437503_a_at (Group G1, Modules 20): −0.6
  Stat1 1450033_a_at (Group G1, Modules 20): −0.5
  Stat1 1450034_at (Group G1, Modules 20): −0.6
  Tdrd7 1426716_at (Group G1, Modules 20): −0.3
  Tor1aip2 1418115_s_at (Group G1, Modules 20): −0.2
  Tor1aip2 1418116_at (Group G1, Modules 20): −0.2
  Tor1aip2 1435526_at (Group G1, Modules 20): −0.5
  Trim12a 1437432_a_at (Group G1, Modules 20): −0.5
  Uba7 1426970_a_at (Group G1, Modules 20): −0.3
LN, z-scores and 40 module mapping
  preferentially induced biological process relative to adjuvants targeting the same receptor: preferentially induced RNA biogenesis
[1]
  Z score of gene expression, Adar (probe 1425405_a_at): −0.5
  Z score of gene expression, Adar (probe 1434268_at): −0.1
  Z score of gene expression, Ddx58 (probe 1436562_at): −0.5
  Z score of gene expression, Ddx58 (probe 1456890_at): −0.6
  Z score of gene expression, Eif2ak2 (probe 1422005_at): −0.5
  Z score of gene expression, G3bp2 (probe 1421323_a_at): −0.5
  Z score of gene expression, Gm9706///Isg15 (probe 1431591_s_at): −0.5
  Z score of gene expression, H2-T10///H2-T22///H2-T9 (probe 1449875_s_at): −0.7
  Z score of gene expression, Ifih1 (probe 1426276_at): −0.5
  Z score of gene expression, Ifit1 (probe 1449025_at): −0.5
  Z score of gene expression, Ifit1 (probe 1450783_at): −0.5
  Z score of gene expression, Irf7 (probe 1417244_a_at): −0.4
  Z score of gene expression, Irgm1 (probe 1418825_at): −0.5
  Z score of gene expression, Mndal (probe 1426906_at): −0.5
  Z score of gene expression, Pml (probe 1448757_at): −0.5
  Z score of gene expression, Pml (probe 1456103_at): −0.6
  Z score of gene expression, Rnf213 (probe 1455500_at): −0.5
  Z score of gene expression, Rsad2 (probe 1436058_at): −0.5
  Z score of gene expression, Shisa5 (probe 1423986_a_at): −0.5
  Z score of gene expression, Shisa5 (probe 1437503_a_at): −0.5
  Z score of gene expression, Stat1 (probe 1450033_a_at): −0.5
  Z score of gene expression, Stat1 (probe 1450034_at): −0.5
  Z score of gene expression, Tdrd7 (probe 1426716_at): −0.6
  Z score of gene expression, Tor1aip2 (probe 1418115_s_at): −0.1
  Z score of gene expression, Tor1aip2 (probe 1418116_at): −0.1
  Z score of gene expression, Tor1aip2 (probe 1435526_at): −0.1
  Z score of gene expression, Trim12a (probe 1437432_a_at): −0.4
  Z score of gene expression, Uba7 (probe 1426970_a_at): −0.4
